Experiment [1] concerns the target GST-hDM2 (Homo sapiens, UniProt Q00987). Briefly: Competition ELISA IC50 (nM) | GST-hDM2. The source says:
Table printed on a drawing sheet, FIGURE 5A
Head of the field: Competition ELISA IC50 (nM) | GST-hDM2
The patent's description of the figure: FIGS. 5A-F describe the results of a cell viability assay, a competition ELISA assay, GRIP assay, Kd data, p21 activation assay, fluorescence polarization competition binding and circular helicity data for exemplary peptidomimetic macrocycles of the invention.
First copying reader's note: First part of a table that continues on FIGS. 5B-F; the print is coarse, several cells hold replicate values separated by; or , and some values sit slightly off their row line.
Where the first naming reader finds the target: head: Competition ELISA IC50 (nM) | GST-hDM2

Experiment [2] addresses HDM2 (Homo sapiens, UniProt Q00987). In words: FP Competition Blinding Assay | HDM2 IC50 (nM).
The target of experiment [3] is HDMx (Homo sapiens, UniProt O15151). In words: FP Competition Blinding Assay | HDMx IC50 (nM).
Sequence of HDMx (O15151 whole entry, looked up): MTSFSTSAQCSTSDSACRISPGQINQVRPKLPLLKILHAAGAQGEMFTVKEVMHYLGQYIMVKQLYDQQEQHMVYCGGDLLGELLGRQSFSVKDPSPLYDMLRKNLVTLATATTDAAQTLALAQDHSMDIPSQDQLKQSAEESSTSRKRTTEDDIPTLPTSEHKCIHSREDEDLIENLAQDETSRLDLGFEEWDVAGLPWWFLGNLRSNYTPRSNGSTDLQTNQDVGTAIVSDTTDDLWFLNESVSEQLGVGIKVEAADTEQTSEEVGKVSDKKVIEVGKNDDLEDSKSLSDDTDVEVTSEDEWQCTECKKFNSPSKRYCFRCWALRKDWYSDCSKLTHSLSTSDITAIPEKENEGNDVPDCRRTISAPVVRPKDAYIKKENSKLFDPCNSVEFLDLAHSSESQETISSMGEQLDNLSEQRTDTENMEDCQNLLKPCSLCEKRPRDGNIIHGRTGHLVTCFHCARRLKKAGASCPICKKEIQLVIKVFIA

By IC50 is commonly meant the concentration that gives 50% inhibition.

Where a SMILES comes first, the peptide text is derived from it. Bridges are numbered along the chain shown (N, C = ends). [ ]: non-standard residue; d: D form. R8 = C=CCCCCCC[C@@](C)(N)C(=O)O; S5 = C=CCCC[C@](C)(N)C(=O)O

Sequence of HDM2 (Q00987 whole entry, looked up): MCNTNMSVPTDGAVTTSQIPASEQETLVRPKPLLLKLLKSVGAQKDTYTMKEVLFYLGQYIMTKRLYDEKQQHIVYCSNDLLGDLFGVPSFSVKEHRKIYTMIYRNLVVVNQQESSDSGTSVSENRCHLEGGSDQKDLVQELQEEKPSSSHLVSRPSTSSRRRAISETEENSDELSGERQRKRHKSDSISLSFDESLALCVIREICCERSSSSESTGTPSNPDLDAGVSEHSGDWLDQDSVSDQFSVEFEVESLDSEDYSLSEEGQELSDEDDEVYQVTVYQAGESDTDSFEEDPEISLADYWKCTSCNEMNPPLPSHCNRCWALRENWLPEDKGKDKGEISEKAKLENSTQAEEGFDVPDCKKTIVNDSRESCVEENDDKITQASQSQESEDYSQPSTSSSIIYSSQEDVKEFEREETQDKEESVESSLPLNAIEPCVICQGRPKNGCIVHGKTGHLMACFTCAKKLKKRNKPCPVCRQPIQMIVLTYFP
Sequence of GST-hDM2 (Q00987 whole entry, looked up): as above

As to `CC(=O)N[C@@H](CC(C)C)C(=O)N[C@@H](CO)C(=O)N[C@@H](CCC(N)=O)C(=O)N[C@@H](CCC(N)=O)C(=O)N[C@H](C(=O)N[C@@H](Cc1ccccc1)C(=O)N[C@]1(C)CCCCCCC=CCCC[C@@](C)(C(=O)N[C@@H](CCC(N)=O)C(=O)N[C@@H](CC(N)=O)C(N)=O)NC(=O)[C@H](CC(C)C)NC(=O)[C@H](CC(C)C)NC(=O)[C@H](CCCNC(=N)N)NC(=O)[C@H](Cc2c[nH]c3ccccc23)NC(=O)[C@H](CC(C)C)NC(=O)[C@H](CC(N)=O)NC1=O)[C@@H](C)O` [SP-3, Ac-LSQQTF$r8NLWRLL$QN-NH2] (Ac-LSQQTF[R8]NLWRLL[S5]QN-NH2; staple 7-14 (inferred)), in experiment [1], the IC50 was 13.4 nM.

`CC(=O)N[C@@H](CC(C)C)C(=O)N[C@H](C(=O)N[C@@H](Cc1ccccc1)C(=O)N[C@]1(C)CCCCCCC=CCCC[C@@](C)(C(=O)N[C@@H](CO)C(N)=O)NC(=O)[C@H](CC(C)C)NC(=O)[C@H](C)NC(=O)[C@H](C)NC(=O)[C@H](Cc2c[nH]c3ccccc23)NC(=O)[C@H](Cc2ccc(O)cc2)NC(=O)[C@H](C)NC1=O)[C@@H](C)O` [SP-351, Ac- L T F $r8 A Y W A A L $ S -NH2] (Ac-LTF[R8]AYWAAL[S5]S-NH2; staple 4-11 (inferred)): the values for the IC50 in experiment [2] and in experiment [3] were 47.2 nM and 143 nM, respectively.

The record behind these values is patent US20170349638A1, “COMPANION DIAGNOSTIC TOOL FOR PEPTIDOMIMETIC MACROCYCLES” (AILERON Therapeutics, Inc., priority 2016, published 2017).
